One series in a line: Aqueous solubility assay. Type of series: physicochemical. To be noted: PBS buffer, kinetic from dmso stock, pH 7.4, theoretical final concentration of 200 μM. The procedure:
The aq. solubility in PBS, pH 7.4 was determined as follows. A 10 mM compound stock solution in DMSO was added to PBS (pH 7.4) to reach a theoretical final concentration of 200 μM. The resulting solution/suspension was shaken at 1250 rpm for 1 h and then stored in the dark at rt for 23 h. At this time any precipitate is separated from the solution by centrifugation at 3900 rpm for 30 min. The aq. solubility was determined by comparing the peak area of the principle peak in a calibration standard (200 μM) in an organic solvent (methanol/water 60:40, v/v) with the peak area of the corresponding peak in the buffer sample. As detection method was used HPLC-UV/VIS at 230 nm.

A short description of series [1]: Parallel Artificial Membrane Permeation Assay (PAMPA). Type of series: in vitro ADME. As to conditions: Flux (%) = (c acceptor well) / sum (c donor well + c acceptor well) × 100 × 2; PBS pH 7.4, 15-16 h at rt. Here is the method:
For the PAMPA, 5 mM stock solutions of test items were prepared in DMSO. 5 mM stock solutions of reference items were prepared in EtOH (carbamazepine, guanabenz) or in EtOH:H2O 1:1 (v/v) (ceftriaxone), respectively. Compounds were diluted in PBS (pH 7.4) to obtain the starting solutions containing 5% of the respective organic solvent and 250 μM reference compounds or 10 μM test items, respectively. For the assay, a modified procedure of the PAMPA as described by Kansy et al. Kansy et al. (J. Med. Chem. 1998, 41, 1007) was used. The reference compounds for low (ceftriaxone), medium (guanabenz) and high permeation (carbamazepine) were included as internal controls.
Permeation experiments were carried out in a Multiscreen 96 well tray (donor) covered by a 96-well Multiscreen Immobilon (acceptor). The hydrophobic filter material of the Immobilon plate was pre-wetted with 70% ethanol and treated with a solution of lipids (lecithin dissolved in dodecane). The donor plate was filled with test compounds and reference compounds and both plates were inserted into each other and placed onto an orbital shaker for 15 min at 100 rpm. The transport study was started by applying 150 μL PBS-buffer containing the test and reference compounds to the donor plate. After 15-16 h of diffusion at rt, the contents of the acceptor and donor plate were collected and quantified using LC/MS-detection (test items) or by UV spectroscopy using a Spectramax Plus^384 (Molecular Devices) (reference items). The absorption maxima for the reference items ceftriaxone, guanabenz and carbamazepine were 240 nm, 270 nm and 286 nm, respectively. Recovery samples were prepared as described for the permeation assay samples and were incubated in representative vials during the permeation period under the same conditions.
For LC/MS analysis of the test items, 100 μL incubate were removed from acceptor and donor compartment and processed for acetonitrile (ACN) precipitation as described below. Additionally, test item samples from the lipid layer were extracted by flushing each well two times with 150 μL EA. The solutions were collected in 1.5 mL reaction tubes and the solvent was evaporated. The dried residues were resuspended in a PBS/DMSO/ACN mixture reflecting the composition of the acceptor and donor samples (i.e. 100 μL buffer supplemented with 5% DMSO, 200 μL ACN+ISTD). The final solvent content of each sample was 66% ACN.
Samples from donor and acceptor compartments and calibration standards were precipitated by addition of 200 μL ACN/ISTD or 400 μL ACN/ISTD, respectively. After vigorous shaking (10 seconds) and centrifugation (5 min at 4800×g, rt), the particle free supernatants were subjected to LC-MS/MS. Membrane compartments were extracted as described above. […]
Background: In PAMPA a lipid-coated filter parts donor from acceptor wells.

Series [2] concerns the target T1, human FXR alpha ligand binding domain (Homo sapiens, UniProt Q96RI1).
T1 construct: made in house; host or cells: E. coli BL21(DE3), vector pDEST15
T1 sequence (Q96RI1 187-472 isoform Q96RI1-2): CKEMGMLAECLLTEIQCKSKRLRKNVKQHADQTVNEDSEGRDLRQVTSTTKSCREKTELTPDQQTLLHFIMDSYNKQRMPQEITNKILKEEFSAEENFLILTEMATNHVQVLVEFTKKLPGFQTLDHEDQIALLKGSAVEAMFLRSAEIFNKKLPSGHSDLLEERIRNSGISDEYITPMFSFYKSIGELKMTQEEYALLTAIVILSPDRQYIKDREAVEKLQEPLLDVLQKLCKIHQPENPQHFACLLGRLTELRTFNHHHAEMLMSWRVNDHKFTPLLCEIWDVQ
The experiment in a line: FRET activity assay (ligand mediated cofactor peptide interaction). Type of series: biochemical. To be noted: FXR-LBD/SRC-1 peptide interaction, LANCE; read-out: EC50 (Group), FRET activity assay. Here is the method: Determination of a ligand mediated cofactor peptide interaction to quantify ligand binding to the nuclear receptor FXR was performed as follows: Preparation of human FXR alpha ligand binding domain: The human FXRalpha LBD was expressed in E. coli strain BL21(DE3) as an N-terminally GST tagged fusion protein. The DNA encoding the FXR ligand binding domain was cloned into vector pDEST15 (Invitrogen). Expression was under control of an IPTG inducible T7 promoter. The amino acid boundaries of the ligand binding domain were amino acids 187-472 of Database entry NM_005123 (RefSeq). Expression and purification of the FXR-LBD: An overnight preculture of a transformed E. coli strain was diluted 1:20 in LB-Ampicillin medium and grown at 30° C. to an optical density of OD600=0.4-0.6. Gene expression was then induced by addition of 0.5 mM IPTG. Cells were incubated an additional 6 h at 30° C., 180 rpm. Cells were collected by centrifugation (7000×g, 7 min, rt). Per liter of original cell culture, cells were resuspended in 10 mL lysis buffer (50 mM Glucose, 50 mM Tris pH 7.9, 1 mM EDTA and 4 mg/mL lysozyme) and left on ice for 30 min. Cells were then subjected to sonication and cell debris removed via centrifugation (22000×g, 30 min, 4° C.). Per 10 mL of supernatant 0.5 mL prewashed Glutathione 4B sepharose slurry (Qiagen) was added and the suspension kept slowly rotating for 1 h at 4° C. Glutathione 4B sepharose beads were pelleted by centrifugation (2000×g, 15 sec, 4° C.) and washed twice in wash buffer (25 mM Tris, 50 mM KCl, 4 mM MgCl2 and 1M NaCl). The pellet was resuspended in 3 mL elution buffer per liter of original culture (elution buffer: 20 mM Tris, 60 mM KCl, 5 mM MgCl2 and 80 mM glutathione added immediately prior to use as powder). The suspension was left rotating for 15 min at 4° C., the beads pelleted and eluted again with half the volume of elution buffer than the first time. The eluates were pooled and dialysed overnight in 20 mM Hepes buffer (pH 7.5) containing 60 mM KCl, 5 mM MgCl2 as well as 1 mM dithiothreitol and 10% (v/v) glycerol. The protein was analysed by SDS-Page.
The method measures the ability of putative ligands to modulate the interaction between the purified bacterial expressed FXR ligand binding domain (LBD) and a synthetic biotinylated peptide based on residues 676-700 of SRC-1 (LCD2, 676-700). The sequence of the peptide used was B-[…]-COOH where the N-terminus was biotinylated (B). The ligand binding domain (LBD) of FXR was expressed as fusion protein with GST in BL-21 cells using the vector pDEST15. Cells were lysed by sonication, and the fusion proteins purified over glutathione sepharose (Pharmacia) according to the manufacturers instructions. For screening of compounds for their influence on the FXR-peptide interaction, the Perkin Elmer LANCE technology was applied. This method relies on the binding dependent energy transfer from a donor to an acceptor fluorophor attached to the binding partner of interest. For ease of handling and reduction of background from compound fluorescence LANCE technology makes use of generic fluorophore labels and time resolved detection Assays were done in a final volume of 25 μL in a 384 well plate, in a Tris-based buffer (20 mM Tris-HCl pH 7.5; 60 mM KCl, 5 mM MgCl2; 35 ng/μL BSA), containing 20-60 ng/well recombinantly expressed FXR-LBD fused to GST, 200-600 nM N-terminally biotinylated peptide, representing SRC1 aminoacids 676-700, 200 ng/well Streptavidin-xIAPC conjugate (Prozyme) and 6-10 ng/well Eu W1024-antiGST (Perkin Elmer). DMSO content of the samples was kept at 1%. After generation of the assay mix and diluting the potentially FXR modulating ligands, the assay was equilibrated for 1 h in the dark at rt in FIA-plates black 384 well (Greiner). The LANCE signal was detected by a Perkin Elmer VICTOR2VTM Multilabel Counter. The results were visualized by plotting the ratio between the emitted light at 665 and 615 nm. […]
In general terms: In TR-FRET formats the signal depends on donor and acceptor labels being close together.

For series [3], the target named is T2, FXR ligand binding domain (Homo sapiens, UniProt Q96RI1).
T2 construct: expressed in transfected cells; host or cells: HEK293 (DSMZ), transient transfection with a pCMV-BD construct
T2 sequence (Q96RI1 187-472 isoform Q96RI1-2): T1 sequence (Q96RI1 187-472 isoform Q96RI1-2)
The experiment in a line: Mammalian One Hybrid (M1H) assay, Gal4 reporter in HEK293 cells. To be noted: Gal4-FXR LBD transactivation, HEK293 cells; read-out: EC50 potency range (Group), M1H assay. Type of series: cell-based. The procedure: Determination of a ligand mediated Gal4 promoter driven transactivation to quantify ligand binding mediated activation of FXR was performed as follows: The cDNA part encoding the FXR ligand binding domain was cloned into vector pCMV-BD (Stratagene) as a fusion to the yeast GAL4 DNA binding domain under the control of the CMV promoter. […] The plasmid pFR-Luc (Stratagene) was used as the reporter plasmid, containing a synthetic promoter with five tandem repeats of the yeast GAL4 binding sites, driving the expression of the Photinus pyralis (American firefly) luciferase gene as the reporter gene. In order to improve experimental accuracy the plasmid pRL-CMV (Promega) was cotransfected. pRL-CMV contains the constitutive CMV promoter, controlling the expression of the Renilla reniformis luciferase. All Gal4 reporter gene assays were done in HEK293 cells (obtained from DSMZ, Braunschweig, Germany) grown in MEM with L-Glutamine and Earle's BSS supplemented with 10% fetal bovine serum, 0.1 mM nonessential amino acids, 1 mM sodium pyruvate, and 100 units Penicillin/[…] per mL at 37° C. in 5% CO2. Medium and supplements were obtained from Invitrogen. For the assay, […] were plated per well in 96 well plates in 100 μL per well MEM without Phenol Red and L-Glutamine and with Earle's BSS supplemented with 10% charcoal/dextran treated FBS (HyClone, South Logan, Utah), 0.1 mM nonessential amino acids, 2 mM glutamine, 1 mM sodium pyruvate, and 100 units Penicillin/[…] per mL, incubated at 37° C. in 5% CO2. The following day the cells were >90% confluence. […] MEM with the same composition as used for plating cells was added 2-4 h after addition of transfection mixture. Then compound stocks, prediluted in MEM were added (final vehicle concentration not exceeding 0.1%). […] All experiments were done in triplicates.

pEC50: −log10 of the molar value. Values after ≈ are worked out from the molar mass of the structure shown.

The term solubility denotes the dissolved amount per volume that the medium holds. A higher solubility goes with a readily soluble substance. A word on the pEC50: it is the EC50 on a negative log10 scale, so that one unit is a factor of ten.

As for `O=C(O)c1cccc(N2CC(O)(c3ccc(OCc4c(-c5c(Cl)cccc5Cl)noc4C4CC4)cc3Cl)C2)c1`, the solubility at 24 h in “Aqueous solubility assay” was 195 µM (≈ 114 µg/mL).
Turning to `O=C(O)c1ccc(C2CC(O)(c3ccc(OCc4c(-c5c(Cl)cccc5Cl)noc4C4CC4)cc3Cl)C2)cc1` (stereo not shown), the concentration in solution in “Aqueous solubility assay” (solubility at 24 h) was 192 µM (≈ 112 µg/mL). Moreover, in series [1], the “PAMPA, Membrane permeability in % Flux” value turned out to be 21.1 % Flux.
Take `Cn1nc(C(=O)O)c2ccc(C3CC(O)(c4ccc(OCc5c(-c6c(Cl)cccc6Cl)noc5C5CC5)cc4Cl)C3)cc21` (stereo not shown) [Example 10, 6-(3-(2-Chloro-4-((5-cyclopropyl-3-(2,6-dichlorophenyl)isoxazol-4-yl)methoxy)phenyl)-3-hydroxycyclobutyl)-1-methyl-1H-indazole-3-carboxylic Acid]: the pEC50 was > 7.60 in series [2] and 7.00 to 7.60 in series [3].
The like results for `CC(C)n1nc(C(=O)NCC(=O)O)cc1C1CC(O)(c2ccc(OCc3c(-c4c(Cl)cccc4Cl)noc3C3CC3)cc2Cl)C1` (stereo not shown) [Example 14/1] were, in that order, > 7.60 and < 7.00.
Regarding `O=C(O)c1cccc([C@H]2C[C@](O)(c3ccc(OCc4c(-c5c(Cl)cccc5Cl)noc4C4CC4)cc3Cl)C2)c1` [drawing 47], the solubility at 24 h in “Aqueous solubility assay” amounted to 192 µM (≈ 112 µg/mL). The “PAMPA, Membrane permeability in % Flux” value in series [1] is given as 24.0 % Flux.
The like results for `O=C(O)c1cccc(C2CC2c2ccc(OCc3c(-c4c(Cl)cccc4Cl)noc3C3CC3)cc2Cl)c1` (stereo not shown) [reference compound] were, in that order, 20 µM (≈ 11.1 µg/mL) and 13.6 % Flux.
The like results for `O=C(O)c1ccc(C2CC2c2ccc(OCc3c(-c4c(Cl)cccc4Cl)noc3C3CC3)cc2Cl)cc1` (stereo not shown) [reference compound] were, in that order, 72 µM (≈ 39.9 µg/mL) and 20.7 % Flux.

The values are drawn from patent US10485795B2, “FXR (NR1H4) binding and activity modulating compounds” (Gilead Sciences, Inc., priority 2011, dated 2019).
